We go through 51 compounds from US9505734B2, “Phenyl C-glucoside derivative containing deoxyglucose structure, preparation method and use thereof” (Tianjin Institute of Pharmaceutical Research, priority 2012, dated 2016).

One series concerns SD rats (type 2 diabetes model). As to the kind of experiment: model for rat urine glucose excretion (glucose-oxidase method). It counts as in vivo. Conditions: type 2 diabetes model SD rats, 6 mg/kg intragastrically, glucose 2 g/kg at 0.5 h, urine collected 0-12 h. The protocol: The health SD rats are injected intraperitoneally with multiple low doses of streptozotocin for modeling (type 2 diabetes model) after feeding with high-fat and high-sucrose diet, and the content of blood glucose is measured before and after modeling. After the modeling successful, the rats for modeling are randomly divided (8 rats/group) into one blank group (administering the same volume of 0.5% CMC sodium solution) and several groups for compounds to be tested (6 mg/kg) according to the content of 24-hour urine glucose and the body weight. Rats in each group are fasted for 16 hours before experiment. The experimental rats are administered intragastrically with glucose (2 g/kg) at 0.5 h after intragastrical administration with compounds to be tested. The urine is collected at the time-period of 0-12 h after administration, and the urine glucose values are measured at each time-period by glucose-oxidase method.
The inhibiting activity of the cocrystal of I-D1-6 and L-proline on SGLT2 is measured by the model for rat urine glucose excretion.
The health SD rats are injected intraperitoneally with multiple low doses of streptozotocin for modeling (type 2 diabetes model) after feeding with high-fat and high-sucrose diet for one month, and the content of blood glucose is measured before and after modeling. After the modeling successful, the rats for modeling are randomly divided (8 rats/group) into one blank group (administering the same volume of 0.5% CMC sodium solution) and groups of tested compound (6 mg/kg) according to the content of 24-hour urine glucose and the body weight. Rats in each group are fasted for 16 hours before experiment. The experimental rats are administered intragastrically with the glucose (2 g/kg) at 0.5 h after intragastrical administration with the cocrystal of I-D1-6 and L-proline prepared in Example 138. The urine is collected at the time-period of 0-12 h after administration, and the urine glucose values are measured at each time-period by glucose-oxidase method.
Regarding `OCC1OC(c2ccc(F)c(Cc3cc4ccccc4s3)c2)CC(O)C1O` (stereo not drawn) [drawing 242], the “Urine glucose excretion (mg/200 g body weight of the rat)” value (from here on “Urine glucose excretion”) is recorded as 716 mg/200 g body weight of the rat.

For the compound `COc1ccc(Cc2cc(C3OC(C)C(O)C(O)C3O)ccc2Cl)cc1` (stereo not drawn) [drawing 243], the “Urine glucose excretion” value was 457 mg/200 g body weight of the rat.

As for `OCC1CC(O)C(O)C(c2ccc(Cl)c(Cc3ccc(O[C@H]4CCOC4)cc3)c2)O1` (stereo partly drawn) [drawing 244], the “Urine glucose excretion” value is reported as 723 mg/200 g body weight of the rat.

With `CCc1ccc(Cc2c(Cl)ccc3c2COC32OC(CO)CC(O)C2O)cc1` (stereo not drawn) [drawing 245], the “Urine glucose excretion” value was 634 mg/200 g body weight of the rat.

Consider `CCc1ccc(Cc2c(Cl)ccc3c2COC32OC(CO)C(O)CC2O)cc1` (stereo not drawn) [drawing 246], for which the “Urine glucose excretion” value is given as 712 mg/200 g body weight of the rat.

Regarding `CCOc1ccc(Cc2cc(C3SC(CO)CC(O)C3O)c(OC)cc2C)cc1` (stereo not drawn) [drawing 247], the “Urine glucose excretion” value is recorded as 677 mg/200 g body weight of the rat.

As for `CCc1ccc(Cc2c(Cl)ccc3c2COC32CC(O)C(O)C(CO)O2)cc1` (stereo not drawn) [drawing 248], the “Urine glucose excretion” value is 717 mg/200 g body weight of the rat.

For the compound `CCOc1ccc(Cc2cc(C3CC(O)C(O)C(CO)S3)c(OC)cc2C)cc1` (stereo not drawn) [drawing 249], the “Urine glucose excretion” value was 786 mg/200 g body weight of the rat.

As to `CCOc1ccc(Cc2cc([C@]34OC[C@](C)(O3)[C@@H](O)[C@H](O)[C@H]4O)ccc2Cl)cc1` [drawing 250], the “Urine glucose excretion” value was 665 mg/200 g body weight of the rat.

On to `CCOc1ccc(Cc2cc([C@@]34OC[C@@](CO)(C[C@H](O)[C@H]3O)O4)ccc2Cl)cc1` [drawing 251], for which the “Urine glucose excretion” value is listed as 751 mg/200 g body weight of the rat.

Regarding `CCOc1ccc(Cc2cc(C3OC(C)CC(O)C3O)ccc2Cl)cc1` (stereo not drawn) [drawing 252], the “Urine glucose excretion” value is reported as 765 mg/200 g body weight of the rat.

Regarding `CC1OC(c2ccc(F)c(Cc3cc4ccccc4s3)c2)CC(O)C1O` (stereo not drawn) [drawing 253], the “Urine glucose excretion” value was 656 mg/200 g body weight of the rat.

For `CCc1ccc(Cc2c(Cl)ccc3c2COC32CC(O)CC(CO)O2)cc1` (stereo not drawn) [drawing 254], the “Urine glucose excretion” value is given as 677 mg/200 g body weight of the rat.

For the compound `CCc1ccc(Cc2c(Cl)ccc3c2COC32OC(C)C(O)C(O)C2O)cc1` (stereo not drawn) [drawing 255], the “Urine glucose excretion” value was 755 mg/200 g body weight of the rat.

For the compound `CCOc1ccc(Cc2cc(C3SC(CO)C(O)CC3O)c(OC)cc2C)cc1` (stereo not drawn) [drawing 256], the “Urine glucose excretion” value is on record as 766 mg/200 g body weight of the rat.

As to `CCOc1ccc(Cc2cc(C3SC(CO)C(O)CC3O)c(OC)cc2C)cc1` (stereo not drawn) [drawing 257], the “Urine glucose excretion” value was 728 mg/200 g body weight of the rat.

Consider `CCOc1ccc(Cc2cc(C3SC(C)C(O)C(O)C3O)c(OC)cc2C)cc1` (stereo not drawn) [drawing 258], for which the “Urine glucose excretion” value is reported as 698 mg/200 g body weight of the rat.

Regarding `CCOc1ccc(Cc2cc([C@]34C[C@@H](O)[C@H](O)[C@](CO)(CO3)O4)ccc2Cl)cc1` [drawing 259], the “Urine glucose excretion” value is listed as 565 mg/200 g body weight of the rat.

Turning to `CCOc1ccc(Cc2cc([C@]34OC[C@](CO)(O3)[C@@H](O)C[C@H]4O)ccc2Cl)cc1` [drawing 260], the “Urine glucose excretion” value is listed as 711 mg/200 g body weight of the rat.

In the case of `Cc1ccc(C2OC(C)C(O)CC2O)cc1Cc1ccc(-c2ccc(F)cc2)s1` (stereo not drawn) [drawing 261], the “Urine glucose excretion” value is recorded as 701 mg/200 g body weight of the rat.

Regarding `OCC1CCC(O)C(c2ccc(Cl)c(Cc3ccc(O[C@H]4CCOC4)cc3)c2)O1` (stereo partly drawn) [drawing 262], the “Urine glucose excretion” value is 721 mg/200 g body weight of the rat.

`CCOc1ccc(Cc2cc(C3CCC(O)C(CO)S3)c(OC)cc2C)cc1` (stereo not drawn) [drawing 263]: the “Urine glucose excretion” value is reported as 730 mg/200 g body weight of the rat.

Another series concerns Mice.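 Also: mice weighing 18–20 g, both sexes in equal proportion within each group.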
Test: not given
The settings on record: both, mouse, in vivo, 750 mg/kg, 1 week.
Consider `OCC1OC(c2ccc(F)c(Cc3cc4ccccc4s3)c2)C(O)C(O)C1O` (stereo not drawn) [drawing 265], for which the “Behaviors after administration with the compound to be tested (deaths)” value (shortened to “Behaviors after administration”) is given as 7 dead.

Regarding `CCOc1ccc(Cc2cc(C3SC(CO)C(O)C(O)C3O)c(OC)cc2C)cc1` (stereo not drawn) [drawing 277], the “Behaviors after administration” value came out at 10 dead.

The same series, now with this note: mice, 10 mice/group, single intragastric dose 750 mg/kg, within one week.
Regarding `CCOc1ccc(Cc2cc(C3OC(CO)C(O)C(O)C3O)ccc2Cl)cc1` (stereo not drawn) [drawing 264], the “Behaviors after administration” value worked out at 8 dead.

As to `CCc1ccc(Cc2c(Cl)ccc3c2COC32OC(CO)C(O)C(O)C2O)cc1` (stereo not drawn) [drawing 266], the “Behaviors after administration” value is listed as 7 dead.

Turning to `CCOc1ccc(Cc2cc([C@]34OC[C@](CO)(O3)[C@@H](O)[C@H](O)[C@H]4O)ccc2Cl)cc1` [drawing 267], the “Behaviors after administration” value turned out to be 9 dead.

On to `CCCOc1ccc(Cc2cc(C3OC(C)C(O)C(O)C3O)ccc2Cl)cc1` (stereo not drawn) [drawing 268], for which the “Behaviors after administration” value worked out at 6 dead.

Turning to `CCOc1ccc(Cc2cc(C3OC(CO)CC(O)C3O)ccc2Cl)cc1` (stereo not drawn) [drawing 269], the “Behaviors after administration” value came out at 2 dead.

As to `CCOc1ccc(Cc2cc(C3CC(O)C(O)C(CO)O3)ccc2Cl)cc1` (stereo not drawn) [drawing 270], the “Behaviors after administration” value was 2 dead.

With `Cc1ccc(C2OC(CO)CC(O)C2O)cc1Cc1ccc(-c2ccc(F)cc2)s1` (stereo not drawn) [drawing 271], the “Behaviors after administration” value amounted to 3 dead.

Regarding `Cc1ccc(C2CC(O)C(O)C(CO)O2)cc1Cc1ccc(-c2ccc(F)cc2)s1` (stereo not drawn) [drawing 272], the “Behaviors after administration” value is reported as 5 dead.

With `CC1OC(c2ccc(F)c(Cc3cc4ccccc4s3)c2)C(O)C(O)C1O` (stereo not drawn) [drawing 273], the “Behaviors after administration” value is listed as 2 dead.

As for `OCC1OC(c2ccc(Cl)c(Cc3ccc(O[C@H]4CCOC4)cc3)c2)C(O)CC1O` (stereo partly drawn) [drawing 274], the “Behaviors after administration” value was 0 dead.

For `Cc1ccc(C2OC(CO)C(O)C(O)C2O)cc1Cc1ccc(-c2ccc(F)cc2)s1` (stereo not drawn) [drawing 275], the “Behaviors after administration” value came to 9 dead.

In the case of `OCC1OC(c2ccc(Cl)c(Cc3ccc(O[C@H]4CCOC4)cc3)c2)C(O)C(O)C1O` (stereo partly drawn) [drawing 276], the “Behaviors after administration” value was determined as 7 dead.

Turning to `COc1ccc(Cc2cc(C3OC(C)C(O)C(O)C3O)ccc2Cl)cc1` (stereo not drawn) [drawing 278], the “Behaviors after administration” value is listed as 7 dead.

In the case of `CCOc1ccc(Cc2cc(C3OC(C)C(O)C(O)C3O)ccc2Cl)cc1` (stereo not drawn) [drawing 279], the “Behaviors after administration” value came to 1 dead.

Turning to `CCOc1ccc(Cc2cc(C3OC(CO)C(O)CC3O)ccc2Cl)cc1` (stereo not drawn) [drawing 280], the “Behaviors after administration” value amounted to 3 dead.

For the compound `Cc1ccc(C2OC(C)C(O)C(O)C2O)cc1Cc1ccc(-c2ccc(F)cc2)s1` (stereo not drawn) [drawing 281], the “Behaviors after administration” value came to 4 dead.

For `Cc1ccc(C2OC(CO)C(O)CC2O)cc1Cc1ccc(-c2ccc(F)cc2)s1` (stereo not drawn) [drawing 282], the “Behaviors after administration” value is 3 dead.

As to `OCC1OC(c2ccc(F)c(Cc3cc4ccccc4s3)c2)C(O)CC1O` (stereo not drawn) [drawing 283], the “Behaviors after administration” value was found to be 0 dead.

With `OCC1CC(O)C(O)C(c2ccc(F)c(Cc3cc4ccccc4s3)c2)O1` (stereo not drawn) [drawing 284], the “Behaviors after administration” value amounted to 1 dead.

For `OCC1OC(c2ccc(F)c(Cc3cc4ccccc4s3)c2)CC(O)C1O` (stereo not drawn) [drawing 285], the “Behaviors after administration” value was 3 dead.

As to `CC1OC(c2ccc(Cl)c(Cc3ccc(O[C@H]4CCOC4)cc3)c2)C(O)C(O)C1O` (stereo partly drawn) [drawing 286], the “Behaviors after administration” value was found to be 1 dead.

With `OCC1OC(c2ccc(Cl)c(Cc3ccc(O[C@H]4CCOC4)cc3)c2)CC(O)C1O` (stereo partly drawn) [drawing 287], the “Behaviors after administration” value was determined as 2 dead.

As to `CCc1ccc(Cc2c(Cl)ccc3c2COC32OC(CO)C(O)CC2O)cc1` (stereo not drawn) [drawing 288], the “Behaviors after administration” value was determined as 5 dead.

On to `CCOc1ccc(Cc2cc(C3SC(CO)CC(O)C3O)c(OC)cc2C)cc1` (stereo not drawn) [drawing 289], for which the “Behaviors after administration” value amounted to 1 dead.

Take `CCc1ccc(Cc2c(Cl)ccc3c2COC32CC(O)C(O)C(CO)O2)cc1` (stereo not drawn) [drawing 290]: the “Behaviors after administration” value amounted to 2 dead.

For `CCOc1ccc(Cc2cc(C3CC(O)C(O)C(CO)S3)c(OC)cc2C)cc1` (stereo not drawn) [drawing 291], the “Behaviors after administration” value is on record as 3 dead.

`CCOc1ccc(Cc2cc([C@]34OC[C@](C)(O3)[C@@H](O)[C@H](O)[C@H]4O)ccc2Cl)cc1` [drawing 292]: the “Behaviors after administration” value came to 3 dead.
